# Test results reported in patent US20230391760A1, “HETEROCYCLIC GLP-1 AGONISTS” (Gasherbrum Bio, Inc., priority 2020, published 2023).
# pEC50: −log10 of the molar value.
# Target: GLP-1 Receptor (Homo sapiens, UniProt P43220)
# Assay: GLP-1R agonist cAMP stimulation assay (HEK293/GLP1R/CRE-LUC cells, cAMP dynamic 2 Kit)
# Type: cell-based
# Details: HEK293/CRE-Luc cell line stably expressing the GLP-1 Receptor, 30 min at 37° C.
# Summary of the method: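 cAMP measured by HTRF competition (d2-labelled cAMP with cryptate antibody, 1 h, room temperature, protected from light). Before that, GLP1R/CRE-Luc HEK293 cells (1000/well) were exposed for 30 min at 37 °C to half-log compound dilutions in DPBS containing IBMX 0.5 mM and BSA 0.1%.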
# Chain of GLP-1 Receptor (P43220 24-463, species assumed): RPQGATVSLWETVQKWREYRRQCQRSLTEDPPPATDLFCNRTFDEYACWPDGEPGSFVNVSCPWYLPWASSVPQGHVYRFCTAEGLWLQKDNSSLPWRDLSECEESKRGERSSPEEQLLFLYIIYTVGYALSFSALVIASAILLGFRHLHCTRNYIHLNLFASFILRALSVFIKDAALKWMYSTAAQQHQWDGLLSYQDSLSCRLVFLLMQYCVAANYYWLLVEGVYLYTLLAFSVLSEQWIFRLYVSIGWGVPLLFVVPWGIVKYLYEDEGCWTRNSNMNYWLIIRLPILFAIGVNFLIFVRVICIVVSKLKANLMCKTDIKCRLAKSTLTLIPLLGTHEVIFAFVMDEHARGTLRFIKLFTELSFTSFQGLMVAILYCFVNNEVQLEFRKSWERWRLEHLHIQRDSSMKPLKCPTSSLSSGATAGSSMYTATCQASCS
row,pEC50,SMILES
1,9.89,"O=C(Nc1ccc2c(c1)nc(CN1CCC(c3cccc(OCc4ccc(Cl)cc4F)n3)CC1)n2C[C@@H]1CCO1)C1CCCOC1 (stereo partly drawn) [Compound 154a, N-{2-[(4-{6-[(4-chloro-2-fluorophenyl)methoxy]pyridin-2-yl}piperidin-1-yl)methyl]-1-{[(2S)-oxetan-2-yl]methyl}-1H-1,3-benzodiazol-5-yl}oxane-3-carboxamide]"
2,9.55,"FC(F)(F)c1nnc(-c2cnc3c(c2)nc(CN2CCC(c4cccc5c4OC[C@@H](c4ccc(Cl)cc4)O5)CC2)n3C[C@@H]2CCO2)[nH]1 [Compound 408a, 4-[(2R)-2-(4-chlorophenyl)-2,3-dihydro-1,4-benzodioxin-5-yl]-1-[(3-{[(2S)-oxetan-2-yl]methyl}-6-[5-(trifluoromethyl)-4H-1,2,4-triazol-3-yl]-3H-imidazo[4,5-b]pyridin-2-yl)methyl]piperidine]"
3,9.68,"O=C(Nc1ccc2c(c1)nc(CN1CCC(c3cccc(OCc4ccc(Cl)cc4F)n3)CC1)n2C[C@@H]1CCO1)C1COC1 [Compound 104a, (S)—N-(2-((4-(6-((4-chloro-2-fluorobenzyl)oxy)pyridin-2-yl)piperidin-1-yl)methyl)-1-(oxetan-2-ylmethyl)-1H-benzo[d]imidazol-5-yl)oxetane-3-carboxamide]"
4,10.06,"C[C@]1(c2ccc(Cl)cc2F)Oc2cccc(C3CCN(Cc4nc5cc(-c6nnc(C(F)(F)F)[nH]6)ncc5n4C[C@@H]4CCCO4)CC3)c2O1 [Compound 426a, 4-[(2S)-2-(4-chloro-2-fluorophenyl)-2-methyl-2H-1,3-benzodioxol-4-yl]-1-[(3-{[(2S)-oxolan-2-yl]methyl}-6-[5-(trifluoromethyl)-4H-1,2,4-triazol-3-yl]-3H-imidazo[4,5-c]pyridin-2-yl)methyl]piperidine]"
5,9.77,"CO[C@@H](C)Cn1c(CN2CCC(c3cccc4c3O[C@@](C)(c3ccc(C#N)cc3F)O4)CC2)nc2cc(-c3nnc(C(F)(F)F)[nH]3)ncc21 [Compound 454a, 3-fluoro-4-[(2S)-4-[1-({3-[(2S)-2-methoxypropyl]-6-[5-(trifluoromethyl)-4H-1,2,4-triazol-3-yl]-3H-imidazo[4,5-c]pyridin-2-yl}methyl)piperidin-4-yl]-2-methyl-2H-1,3-benzodioxol-2-yl]benzonitrile]"
6,8.15,"CC1(c2ccc(Cl)cc2F)Oc2cccc(C3CCN(Cc4nc5cc(-c6n[nH]c(=O)[nH]6)ccc5n4C[C@@H]4CCO4)CC3)c2O1 (stereo partly drawn) [Compound 355a, 3-[2-({4-[2-(4-chloro-2-fluorophenyl)-2-methyl-2H-1,3-benzodioxol-4-yl]piperidin-1-yl}methyl)-1-{[(2S)-oxetan-2-yl]methyl}-1H-1,3-benzodiazol-5-yl]-4,5-dihydro-1H-1,2,4-triazol-5-one]"
7,9.55,"CO[C@@H](C)Cn1c(CN2CCC(c3cccc4c3O[C@@](C)(c3ccc(C#N)cc3F)O4)CC2)nc2cc(-c3noc(=O)[nH]3)ncc21 [Compound 443a, 3-fluoro-4-[(2S)-4-[1-({3-[(2S)-2-methoxypropyl]-6-(5-oxo-4,5-dihydro-1,2,4-oxadiazol-3-yl)-3H-imidazo[4,5-c]pyridin-2-yl}methyl)piperidin-4-yl]-2-methyl-2H-1,3-benzodioxol-2-yl]benzonitrile]"
8,9.85,"C[C@H]1CN(c2ncc(F)c(OCc3ccc(Cl)cc3F)n2)CCN1Cc1nc2cc(-c3nnc(C(F)(F)F)[nH]3)nnc2n1C[C@@H]1CCO1 [Compound 512a, 4-[(4-chloro-2-fluorophenyl)methoxy]-5-fluoro-2-[(3S)-3-methyl-4-[(7-{[(2S)-oxetan-2-yl]methyl}-3-[5-(trifluoromethyl)-4H-1,2,4-triazol-3-yl]-7H-imidazo[4,5-c]pyridazin-6-yl)methyl]piperazin-1-yl]pyrimidine]"
9,9.37,"CCc1nnc(-c2cnc3c(c2)nc(CN2CCC(c4cccc5c4O[C@@](C)(c4ccc(Cl)cc4F)O5)CC2)n3C[C@@H]2CCO2)[nH]1 [Compound 352a, 4-[(2S)-2-(4-chloro-2-fluorophenyl)-2-methyl-2H-1,3-benzodioxol-4-yl]-1-{[6-(5-ethyl-4H-1,2,4-triazol-3-yl)-3-{[(2S)-oxetan-2-yl]methyl}-3H-imidazo[4,5-b]pyridin-2-yl]methyl}piperidine]"
10,10.92,"C[C@]1(c2ccc(Cl)cc2F)Oc2cccc(C3CCN(Cc4nc5cc(-c6nnc(C(F)(F)F)[nH]6)ncc5n4C[C@@H]4CCO4)CC3)c2O1 [Compound 366a, 4-[(2S)-2-(4-chloro-2-fluorophenyl)-2-methyl-2H-1,3-benzodioxol-4-yl]-1-[(3-{[(2S)-oxetan-2-yl]methyl}-6-[5-(trifluoromethyl)-4H-1,2,4-triazol-3-yl]-3H-imidazo[4,5-c]pyridin-2-yl)methyl]piperidine]"
11,9.59,"O=c1[nH]c(-c2cc3nc(CN4CC=C(c5ccc(F)c(OCc6ccc(Cl)cc6F)c5)CC4)n(C[C@@H]4CCO4)c3cn2)no1 [Compound 299a, 3-{2-[(4-{3-[(4-chloro-2-fluorophenyl)methoxy]-4-fluorophenyl}-1,2,3,6-tetrahydropyridin-1-yl)methyl]-3-{[(2S)-oxetan-2-yl]methyl}-3H-imidazo[4,5-c]pyridin-6-yl}-4,5-dihydro-1,2,4-oxadiazol-5-one]"
12,10.03,"CC1(c2ccc(Cl)cc2F)Oc2cccc(C3CCN(Cc4nc5cc(-c6nnc(C(F)F)[nH]6)ccc5n4C[C@@H]4CCO4)CC3)c2O1 (stereo partly drawn) [Compound 227a, 2-({4-[2-(4-chloro-2-fluorophenyl)-2-methyl-2H-1,3-benzodioxol-4-yl]piperidin-1-yl}methyl)-5-[5-(difluoromethyl)-4H-1,2,4-triazol-3-yl]-1-{[(2S)-oxetan-2-yl]methyl}-1H-1,3-benzodiazole]"
13,9.96,"O=c1[nH]c(-c2cnc3c(c2)nc(CN2CC=C(c4cccc(OCc5ccc(Cl)cc5F)n4)CC2)n3C[C@@H]2CCO2)no1 [Compound 324a, 3-[2-({6-[(4-chloro-2-fluorophenyl)methoxy]-1′,2′,3′,6′-tetrahydro-[2,4′-bipyridin]-1′-yl}methyl)-3-{[(2S)-oxetan-2-yl]methyl}-3H-imidazo[4,5-b]pyridin-6-yl]-4,5-dihydro-1,2,4-oxadiazol-5-one]"
14,10.00,"Cc1nnc(-c2cnc3c(c2)nc(CN2CCC(c4cccc5c4O[C@@](C)(c4ccc(Cl)cc4F)O5)CC2)n3C[C@@H]2CCO2)[nH]1 [Compound 292a, 4-[(2S)-2-(4-chloro-2-fluorophenyl)-2-methyl-2H-1,3-benzodioxol-4-yl]-1-{[6-(5-methyl-4H-1,2,4-triazol-3-yl)-3-{[(2S)-oxetan-2-yl]methyl}-3H-imidazo[4,5-b]pyridin-2-yl]methyl}piperidine]"
15,8.62,"O=c1[nH]ccn1-c1ccc2c(c1)nc(CN1CCC(c3cccc(OCc4ccc(Cl)cc4F)n3)CC1)n2C[C@@H]1CCO1 [Compound 122a, 1-{2-[(4-{6-[(4-chloro-2-fluorophenyl)methoxy]pyridin-2-yl}piperidin-1-yl)methyl]-1-{[(2S)-oxetan-2-yl]methyl}-1H-1,3-benzodiazol-5-yl}-2,3-dihydro-1H-imidazol-2-one]"
16,10.40,"Fc1cc(Cl)ccc1COc1cccc(C2CCN(Cc3nc4cc(-c5nnc(C(F)(F)F)[nH]5)ncc4n3C[C@@H]3CCO3)CC2F)n1 (stereo partly drawn) [Compound 499a, 2-[(4-chloro-2-fluorophenyl)methoxy]-6-[(3,4-trans)-3-fluoro-1-[(3-{[(2S)-oxetan-2-yl]methyl}-6-[5-(trifluoromethyl)-4H-1,2,4-triazol-3-yl]-3H-imidazo[4,5-c]pyridin-2-yl)methyl]piperidin-4-yl]pyridine]"
17,10.89,"Fc1cc(Cl)ccc1COc1cccc(N2CCN(Cc3nc4cc(-c5nnc(C(F)(F)F)[nH]5)cnc4n3C[C@@H]3CCO3)CC2)n1 [Compound 494a, 1-{6-[(4-chloro-2-fluorophenyl)methoxy]pyridin-2-yl}-4-[(3-{[(2S)-oxetan-2-yl]methyl}-6-[5-(trifluoromethyl)-4H-1,2,4-triazol-3-yl]-3H-imidazo[4,5-b]pyridin-2-yl)methyl]piperazine]"
18,10.04,"Fc1cc(Cl)ccc1COc1nc(C2CCN(Cc3nc4cc(-c5nnc(C(F)(F)F)[nH]5)cnc4n3C[C@@H]3CCO3)CC2)ncc1F [Compound 504a, 4-[(4-chloro-2-fluorophenyl)methoxy]-5-fluoro-2-{1-[(3-{[(2S)-oxetan-2-yl]methyl}-6-[5-(trifluoromethyl)-4H-1,2,4-triazol-3-yl]-3H-imidazo[4,5-b]pyridin-2-yl)methyl]piperidin-4-yl}pyrimidine]"
19,9.26,"CC1(c2ccc(Cl)cc2F)Oc2cccc(C3CCN(Cc4nc5cc(-c6noc(=O)[nH]6)c(F)cc5n4C[C@@H]4CCO4)CC3)c2O1 (stereo partly drawn) [Compound 222a, 3-[2-({4-[2-(4-chloro-2-fluorophenyl)-2-methyl-2H-1,3-benzodioxol-4-yl]piperidin-1-yl}methyl)-6-fluoro-1-{[(2S)-oxetan-2-yl]methyl}-1H-1,3-benzodiazol-5-yl]-4,5-dihydro-1,2,4-oxadiazol-5-one]"
20,9.12,"COCCn1c(CN2CCC(c3cccc4c3OC(C)(c3ccc(Cl)cc3F)O4)CC2)nc2cc(-c3nnc(C(F)(F)F)[nH]3)cnc21 (stereo not drawn) [Compound 402, 4-[2-(4-chloro-2-fluorophenyl)-2-methyl-2H-1,3-benzodioxol-4-yl]-1-{[3-(2-methoxyethyl)-6-[5-(trifluoromethyl)-4H-1,2,4-triazol-3-yl]-3H-imidazo[4,5-b]pyridin-2-yl]methyl}piperidine]"
21,9.09,"O=C(Nc1ccc2c(c1)nc(CN1CCC(c3cccc(OCc4ccc(Cl)cc4F)n3)CC1)n2C[C@@H]1CCO1)C1COCCC1(F)F (stereo partly drawn) [Compound 189a, N-{2-[(4-{6-[(4-chloro-2-fluorophenyl)methoxy]pyridin-2-yl}piperidin-1-yl)methyl]-1-{[(2S)-oxetan-2-yl]methyl}-1H-1,3-benzodiazol-5-yl}-4,4-difluorooxane-3-carboxamide]"
